Laboratory results taken from patent US20190231793A1, “USE OF HARRINGTONINES IN THE TREATMENT OF BREAST CANCER, IN PARTICULAR TRIPLE-NEGATIVE BREAST CANCER” (priority 2016, published 2019).
Where two headings read alike, the source gives them in different places.

Legend:
[1] = cytotoxic = toxicity for tumor cells in culture; anticancer = data obtained in clinical trials; cited from earlier work
Mcl-1 = experiment: Western blot, expression of apoptosis regulatory proteins; type: cell-based; settings: 100 nM HHT; all lines analyzed except MDA-MB-231 (CAL-51, MDA-MB-468, MDA-MB-157)
Method: (§1) Western blot: 5×10^5 cells, in 10 ml of medium, were inoculated in the 100 mm Petri dishes. After 24 hours of rest, the cells were incubated with 100 nM of HHT for different times, staggered for 2 hours and 48 hours. Then, the cells were washed and lysed directly into the dishes (without trypsinization) using RIPA buffer (Pierce-ThermoScientific), containing a mixture of protease inhibitors (Sigma). The protein concentration was determined by the method of Bradford. Protein electrophoresis was performed in 12-30% polyacrylamide gels. After transfer to the PVDF membrane, the revelation was carried out by ECL Plus (Amersham).

XIAP = experiment: as above; type: cell-based; settings: 100 nM HHT; compared with Mcl-1
Method: as §1

survivin = experiment: as above; type: cell-based; settings: 100 nM HHT; CAL-51; same effect as for Mcl-1 (very fast and strong drop)
Method: as §1

[2] = system: apoptosis regulatory proteins in MDA-MB-231; experiment: Western blot, expression of apoptosis regulatory proteins in line MDA-MB-231; type: cell-based; settings: 100 nM HHT
Method: as §1

MDA-MB-231 xenograft = experiment: In vivo study on MDA-MB-231 triple negative breast tumor xenograft; design: species or system Swiss nudes immuno-depressed mice (nu/nu); settings: 1 mg of HHT (as salt) per kg subcutaneously twice daily for 8 days; difference between day 0 and day 10; control group increased 20-30%
Method: The efficacy of homoharringtonine in vivo on xenografts of the triple-negative breast cancer line (MDA-MB-231), was performed on Swiss nudes immuno-depressed mice (nu/nu), […]. −12 weeks. The tumor was grafted in 16 animals, by injecting 5×10^6 cells of the tumor strain, subcutaneously in the dorsal region, until a tumor volume of 200-300 mm 3 was obtained. 8 mice received 1 mg of HHT (as salt) per kg subcutaneously twice daily for 8 days. The control group (7 mice) received only physiological saline in the same dosage as HHT. Mice were sacrificed 3 days after stopping treatment, recovered xenografts, and measured tumor size. The tissues were then formalin-fixed and paraffin-embedded for subsequent histological analyzes.

MDA-MB-468 [3] = experiment: Apoptosis by flow cytometry (FITC Annexin V); type: cell-based; settings: increasing concentrations, 6-72 h
Method: (§2) Cell cycle and apoptosis: the number of cells in different phases of the cell cycle or in apoptosis was determined by flow cytometry using FITC Annexin V Apoptosis Detection Kit 1 (BD Biosciences) and following the manufacturer's recommendations. Briefly, 3×10^4 cells of each line were seeded in 6-well plates and, after 24 h resting, treated with increasing concentrations of HHT for 6-72 h, then washed and incubated with propidium iodide and or with FITC annexin V). The fluorescence was measured using a BD LSH II cytofluorometer (BD Biosciences).

CAL-51 [4] = experiment: Apoptosis by flow cytometry (FITC Annexin V); type: cell-based; settings: increasing concentrations, 6-72 h
Method: as §2

MDA-MB-231 [5] = experiment: Apoptosis by flow cytometry (FITC Annexin V); type: cell-based; settings: regardless of concentration or incubation time
Method: as §2

MDA-MB-157 [6] = experiment: Apoptosis by flow cytometry (FITC Annexin V); type: cell-based; settings: increasing concentrations, 6-72 h
Method: as §2

MDA-MB-468 [7] = experiment: Cell cycle by flow cytometry; type: cell-based; settings: MDA-MB-468, 48 hours, 20 nM or 50 nM HHT
Method: as §2

CAL-51 [8] = experiment: Cell cycle by flow cytometry; type: cell-based; settings: CAL-51, 48 hours, 20 nM HHT
Method: as §2

MDA-MB-231 [9] = experiment: Cell cycle by flow cytometry; type: cell-based; settings: MDA-MB-231, 48 hours, 20 nM or 50 nM HHT
Method: as §2

MDA-MB-157 [10] = experiment: Cell cycle by flow cytometry; type: cell-based; settings: MDA-MB-157, 48 hours, 50 nM HHT
Method: as §2

MDA-MB-468 [11] = experiment: Cell viability (SRB), inhibition of cell proliferation; type: cell-based
Method: (§3) MDA-MB-468 (PTEN, RB1, SMAD4, mutated TP53, amplified EGFR/ERBB1) and MDA-MB-231 (highly metastatic, without alteration of PI3K-Akt-mTOR; KRAS, BRAF, CDKN2A, PDGFRA, (NF2, Mutated TP53) were cultured in Liebowitz's medium+10% FCS+200 μg/ml gentamycin, in a CO2-free atmosphere
(§4) Drug: commercial HHT (Sigma-Aldrich), purified by recrystallization according to Liu's technique [U.S. Pat. No. 62,073, 14 May 1987], was provided free of charge by LeukePharma (Le Mans, France). The stock solution of 20 mM HHT citrate was obtained by dissolution in citric acid (Sigma-Aldrich), in equimolar amount or by direct dissolution of the crystalline homoharringtonine salt in sterile purified water. The following dilutions of this stock solution were performed using sterile PBS buffer. All of the solutions was stored at −80° C.
(§5) Cell viability: The cells were seeded in the 96-well plates at the concentration of 5000 cells/well (3.3×10^4/ml) for the MDA-MB-lines, and at the concentration of 1000 cells/well (6.6×10 3 ml) for CAL-51. After 24 hours of rest, at the confluence of 50-60%, the cells were treated with increasing concentrations of HHT for 24 h, 48 h and 72 h. After washing twice with sterile PBS and 48 h rest, the cells were fixed with trichloroacetic acid. After the addition of […] (SRB), the absorbance was measured at 540 nm (Multiskan™ FC plate photometer, Thermo Scientific). IC50s were calculated by CompuSyn (Chou & Talalay, ComboSyn Inc., Paramus, N.J., USA).

MDA-MB-231 [12] = experiment: as above; type: cell-based; settings: Homo sapiens; for viability at 0.05 µM / viability at 0.1 µM: read-out: viable fraction (Fv=% of viable cells)
Method: as §3, §4, §5

CAL-51 [13] = experiment: as above; type: cell-based
Method: (§6) Cell Lines: CAL-51 (PIK3CA mutated) and MDA-MB-157 (without apparent genomic alteration of the PI3K-AKT-mTOR axis (NF1, TP53 mutated) were cultured in DMEM+10% FCS+200 μg/ml gentamicin, in humidified atmosphere, at 5% CO 2.
as §4, §5

MDA-MB-157 [14] = experiment: as above; type: cell-based
Method: as §6, §4, §5

[15] = 24 h, 48 h, 72 h, regardless of the concentrations (p>0.05)
[16] = Homo sapiens, 24 hours, range given for 3 out of 4 lines analyzed

In the case of `COC(=O)C[C@](O)(CCC(C)(C)O)C(=O)O[C@@H]1C(OC)=C[C@]23CCCN2CCc2cc4c(cc2[C@H]13)OCO4` [(1a), harringtonine], the Activity [1] is given as “anticancer”.

For `COC(=O)CC(O)(CC(C)(C)O)C(=O)OC1C(OC)=CC23CCCN2CCc2cc4c(cc2C13)OCO4` (stereo not shown) [(1c), norharringtonine], the Activity [1] is listed as “none”.

For `COC(=O)C[C@](O)(CCC(C)C)C(=O)O[C@@H]1C(OC)=C[C@]23CCCN2CCc2cc4c(cc2[C@H]13)OCO4` [(1d), deoxyharringtonine], the Activity [1] is given as “anticancer”.

For `COC(=O)CC(O)(CCCCC(C)(C)O)C(=O)OC1C(OC)=CC23CCCN2CCc2cc4c(cc2C13)OCO4` (stereo not shown) [(1e), bishomoharringtonine], the Activity [1] is given as “none”.

In the case of `COC(=O)[C@@H](O)[C@](O)(CCC(C)C)C(=O)O[C@@H]1C(OC)=C[C@]23CCCN2CCc2cc4c(cc2[C@H]13)OCO4` [(1f), isoharringtonine], the Activity [1] is listed as “none”.

With `COC(=O)C[C@](O)(CCCC(C)(C)O)C(=O)O[C@@H]1C(OC)=C[C@]23CCCN2CCc2cc4c(cc2[C@H]13)OCO4` [HHT, homoharringtonine] the “level of Mcl-1” value (Mcl-1) was “very fast and strong drop”, the “reduction in the XIAP rate” value (XIAP) was “more modest and occurred later” and the level of survivin (survivin) was “same effect”. For the same compound, the “level of apoptosis regulatory proteins” value [2] was “no effect”, the “decrease in tumor volume” value (MDA-MB-231 xenograft) was 20 to 60% and the “effect on apoptosis (% of cells in early and late apoptosis)” value (MDA-MB-468 [3]) was “induces apoptosis of CAL-51, MDA-MB-468 and MDA-MB-157 cells in a concentration and time dependent manner”. For the same compound, the “effect on apoptosis (% of cells in early and late apoptosis)” value (CAL-51 [4]) was “induces apoptosis of CAL-51, MDA-MB-468 and MDA-MB-157 cells in a concentration and time dependent manner”, the “effect on apoptosis (% of cells in early and late apoptosis)” value (MDA-MB-231 [5]) was “no significant apoptosis was observed” and the “effect on apoptosis (% of cells in early and late apoptosis)” value (MDA-MB-157 [6]) was “induces apoptosis of CAL-51, MDA-MB-468 and MDA-MB-157 cells in a concentration and time dependent manner”. For the same compound, the “effect on the cell cycle” value (MDA-MB-468 [7]) was “stopped in the G2/M phase”, the “effect on the cell cycle” value (CAL-51 [8]) was “accumulation of CAL-51 and MDA-MB-157 cells in Set GO/G1 phase” and the “effect on the cell cycle” value (MDA-MB-231 [9]) was “stopped in the G2/M phase”. The “effect on the cell cycle” value (MDA-MB-157 [10]) was “accumulation of CAL-51 and MDA-MB-157 cells in Set GO/G1 phase”, the “effect on proliferation versus incubation time” value (MDA-MB-468 [11]; [15]) was “independent of the incubation time” and the IC50 (MDA-MB-468 [11]; [16]) was 0.0159 to 0.0213 µM. For the same compound, the viability at 0.05 µM (MDA-MB-231 [12]; MDA-MB-231, 24 h) was 58.1 ± 14.5%, the viability at 0.1 µM (MDA-MB-231 [12]; MDA-MB-231, 24 h) was 41.7 ± 13.3% and the viability at 0.05 µM (MDA-MB-231 [12]; MDA-MB-231, 72 h) was 25.9 ± 2.4%. For the same compound, the viability at 0.1 µM (MDA-MB-231 [12]; MDA-MB-231, 72 h) was 18.7 ± 4.8%, the IC50 (MDA-MB-231 [12]; MDA-MB-231, 24 hours) was 0.0805 µM and the “effect on proliferation versus incubation time” value (CAL-51 [13]; [15]) was “independent of the incubation time”. The IC50 (CAL-51 [13]; [16]) was 0.0159 to 0.0213 µM, the “effect on proliferation versus incubation time” value (MDA-MB-157 [14]; [15]) was “independent of the incubation time” and the IC50 (MDA-MB-157 [14]; [16]) was 0.0159 to 0.0213 µM. The Activity [1] was “anticancer”.

For neoharringtonine [(1g)], the Activity [1] is given as “cytotoxic”.
